From US9586905B2, “Benzoazepine derivative and medical use thereof” (SANWA KAGAKU KENKYUSHO CO., LTD., priority 2012, dated 2017)

Legend:
Rat PK test = format: in vivo; conditions: iv, male Sprague-Dawley rat, caudal vein administration, 0.5 mg/kg, plasma; for Vd: CLp multiplied by MRT, read-out: Vdss; for clearance: administration amount divided by AUC0-∞, read-out: CLp (converted)
Protocol: A male Sprague-Dawely (Crj: CD(SD)IGS: CHARLES RIVER LABORATORIES JAPAN, INC.) rat was used between 7 to 8 weeks of age as an experimental animal. A rat fasted for one night was used. A test compound was dissolved into DMSO, thereto were added PEG and physical saline to adjust a concentration to be 0.5 mg/mL (20/20/60, v/v/v), and the solution was administered to the caudal vein in a use amount of 0.5 mg/kg. A blood sample was taken with a syringe treated with heparin from the jugular vein with time from 6 to 8 hours after administration and the taken blood was centrifuged to obtain plasma. A plasma drug concentration was measured using LC/MS/MS. For the sample for the LC/MS/MS measurement, a supernatant obtained by adding an internal standard substance and acetonitrile to the plasma and then deproteinization was used. A PK parameter was analyzed by a non-compartment model. A clearance (CLp) was calculated by dividing an administration amount by AUC0-∞. A distribution volume (Vdss) was calculated by multiplying CLp by a mean retention time (MRT).

human V2 receptor = target: T1, human V2 receptor (Homo sapiens, UniProt P30518); assay: cAMP production test in V2 receptor expression cell; format: cell-based; conditions: for EC50: human V2 receptor expression cell, 30 minutes at room temperature, HTRF cAMP kit; for Emax: maximum reaction by 8-AVP assumed to be 100%
T1 construct: A DNA fragment containing a human V2 receptor code region; expressed in transfected cells
Protocol: Pharmacological Test (1) Preparation of Human V2 Receptor Expression Cell
A DNA fragment containing a human V2 receptor code region was inserted into an expression vector of a vertebrate cell. The expression vector was genetically introduced into an animal cell to have the human V2 receptor express in the surface of the cell. Since the expression vector could express a neo gene which functions as a G418 resistance marker, it was cultured in a G418-containing medium, thereby selectively obtaining a human V2 receptor stable expression cell.
(2) cAMP Production Test in V2 Receptor Expression Cell
The human V2 receptor expression cell, which was prepared in the above described method, was recovered and resuspended into an incubation buffer (F-12 medium, 20 mM HEPES), and 5 μl of the cell was then divided into a 384-well plate with a density of 15,000 cells/well. 5 μl of a compound solution or an 8-AVP ((Arg^8)-vasopressin) solution, which was diluted with an assay buffer (F-12 medium, 20 mM HEPES, 1 mM IBMX), (total 10 μl/well) was added to each well (final concentration: 15,000 cells/well, 500 μM IBMX, 1% dimethyl sulfoxide). After incubation at room temperature for 30 minutes, a cAMP production amount was measured using a commercially available HTRF cAMP kit (Cisbio Inc.) according to the described protocol. Excel Fit was used in order to find EC50 and Emax values of the test compound.

CYP3A4 = target: T2, CYP3A4 (Homo sapiens, UniProt P08684); assay: Test of inhibition of cytochrome P450 (3A4) enzyme; format: in vitro ADME; conditions: human liver microsome, midazolam 2.5 μM as substrate, test compound 0.21 to 50 μM, 37° C. 10 minutes
T2 construct: human liver microsome with a protein concentration of 0.1 mg protein/mL; from tissue; host or cells: human liver microsomes
Protocol: (4) Test of Inhibition of Cytochrome P450 (3A4) Enzyme
(§1) Using a 96 well plate, midazolam (2.5 μM) as a substrate, a test compound (0.21 to 50 μM), human liver microsome with a protein concentration of 0.1 mg protein/mL were added to a 0.1 M phosphoric acid buffer solution (pH=7.4), which contains 1.55 mM NADP^+, 3.3 mM glucose-6-phosphate, 3.3 mM MgCl2 and 0.4 Units/ml of glucose-6-phosphate dehydrogenase to form a reaction solution having a total amount of 500 μl. The reaction solution was incubated at 37° C. for 10 minutes and 4-hold amount of cold acetonitrile was added thereto to terminate the reaction. Then, the reaction solution was centrifuged (5000 g×10 minutes×4° C.), and the supernatant was collected to measure a production amount of a metabolized product by LC/MS/MS.

CYP2C9 = target: T3, CYP2C9 (Homo sapiens, UniProt P11712); assay: Test of inhibition of cytochrome P450 (2C9) enzyme; format: in vitro ADME; conditions: human liver microsome, sulfaphenazole 10 μM, test compound 0.21 to 50 μM, 37° C. 10 minutes
T3 construct: human liver microsome with a protein concentration of 0.1 mg protein/mL; from tissue; host or cells: human liver microsomes
Protocol: (5) Test of Inhibition of Cytochrome P450 (2C9) Enzyme
as §1, with “sulfaphenazole (10” for “midazolam (2.5”, “[…].” for “500 μl.”

T3 sequence (P11712 whole entry): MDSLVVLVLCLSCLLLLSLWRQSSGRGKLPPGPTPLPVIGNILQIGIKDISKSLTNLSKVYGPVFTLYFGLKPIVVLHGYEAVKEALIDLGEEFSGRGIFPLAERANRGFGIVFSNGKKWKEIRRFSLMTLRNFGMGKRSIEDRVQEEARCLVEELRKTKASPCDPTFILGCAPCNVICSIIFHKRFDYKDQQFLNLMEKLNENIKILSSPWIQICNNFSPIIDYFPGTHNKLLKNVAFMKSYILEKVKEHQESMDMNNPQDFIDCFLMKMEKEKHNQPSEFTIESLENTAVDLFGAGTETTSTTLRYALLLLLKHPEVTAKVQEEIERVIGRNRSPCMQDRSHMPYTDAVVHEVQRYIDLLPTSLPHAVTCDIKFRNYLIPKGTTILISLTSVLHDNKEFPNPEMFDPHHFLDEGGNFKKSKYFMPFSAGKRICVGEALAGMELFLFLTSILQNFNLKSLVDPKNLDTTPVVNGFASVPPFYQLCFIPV
T1 sequence (P30518 whole entry, the tested form may be a part): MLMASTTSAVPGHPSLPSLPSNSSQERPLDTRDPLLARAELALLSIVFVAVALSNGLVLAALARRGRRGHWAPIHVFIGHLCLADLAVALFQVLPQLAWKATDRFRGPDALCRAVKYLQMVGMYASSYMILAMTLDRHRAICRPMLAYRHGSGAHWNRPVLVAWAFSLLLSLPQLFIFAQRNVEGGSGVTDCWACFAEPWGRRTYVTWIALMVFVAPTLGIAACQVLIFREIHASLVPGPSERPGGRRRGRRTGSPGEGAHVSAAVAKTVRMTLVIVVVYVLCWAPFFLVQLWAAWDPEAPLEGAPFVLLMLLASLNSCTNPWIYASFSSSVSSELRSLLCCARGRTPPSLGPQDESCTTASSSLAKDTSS
T2 sequence (P08684 whole entry): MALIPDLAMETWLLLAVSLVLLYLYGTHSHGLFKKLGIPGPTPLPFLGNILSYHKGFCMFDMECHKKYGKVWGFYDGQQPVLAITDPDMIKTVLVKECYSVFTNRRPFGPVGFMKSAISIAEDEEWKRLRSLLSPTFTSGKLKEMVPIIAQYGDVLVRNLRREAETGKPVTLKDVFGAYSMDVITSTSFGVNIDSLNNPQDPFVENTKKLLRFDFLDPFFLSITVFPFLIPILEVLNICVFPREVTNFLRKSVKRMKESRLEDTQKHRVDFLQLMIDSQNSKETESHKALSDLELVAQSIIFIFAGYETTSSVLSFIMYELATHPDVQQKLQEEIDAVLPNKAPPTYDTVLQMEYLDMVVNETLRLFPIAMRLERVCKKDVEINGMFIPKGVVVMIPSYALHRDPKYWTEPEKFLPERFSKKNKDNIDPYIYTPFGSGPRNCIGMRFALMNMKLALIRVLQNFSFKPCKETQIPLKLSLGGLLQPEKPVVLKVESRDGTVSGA

| Compound | AUC (Rat PK test) [ng·h/mL] | Vd (Rat PK test) [L/kg] | clearance (Rat PK test) [mL/min/kg] | EC50 (human V2 receptor) [µM] | Emax (human V2 receptor) [%] | IC50 (CYP3A4) [µM] | IC50 (CYP2C9) [µM] |
| --- | --- | --- | --- | --- | --- | --- | --- |
| Cc1ccn(-c2ccc(C(=O)N3CCC(C)(C(=O)NC(C)CO)Cc4ccccc43)c(C(F)(F)F)c2)n1 (single isomer, unassigned) [Example 89] | 371 | 1.23 | 22.5 | 0.0014 | 102 | > 50 | 40.2 |
| Cc1ccn(-c2ccc(C(=O)N3CCC(C)(C(=O)NC(C)CO)Cc4ccccc43)c(Cl)c2)n1 (single isomer, unassigned) [Example 72] | 430 | 0.96 | 19.3 | 0.0021 | 101 | > 50 | 46.8 |
| CC(NC(=O)C1(C)CCN(C(=O)c2ccc(N3CCCC3)cc2C(F)(F)F)c2ccccc2C1)C(N)=O (single isomer, unassigned) [Example 90] | 613 | 1.08 | 13.6 | 0.00039 | 101 | – | – |

Continued, values first:

| AUC (Rat PK test) [ng·h/mL] | Vd (Rat PK test) [L/kg] | clearance (Rat PK test) [mL/min/kg] | EC50 (human V2 receptor) [µM] | Emax (human V2 receptor) [%] | IC50 (CYP3A4) [µM] | IC50 (CYP2C9) [µM] | Compound |
| --- | --- | --- | --- | --- | --- | --- | --- |
| 176 | 4.72 | 47.8 | – | – | – | – | C[C@@H]1CN(C(=O)c2ccc(-n3cccn3)cc2Cl)c2ccccc2CN1C(=O)NCCO [comparative compound 1, N-(2-hydroxyethyl)-(R)-1-(2-chloro-4-pyrazol-1-ylbenzoyl)-3-methyl-1,2,3,5-tetrahydro-benzo[e]-1,4-diazepine-4-carboxamide, reference compound] |
| – | – | – | – | – | 0.4 | 0.2 | CC(C)NC(=O)C[C@H]1CCCN(C(=O)c2ccc(N3CCCC3)cc2Cl)c2ccccc21 [comparative compound 2, 2-[(5R)-1-(2-chloro-4-pyrrolidine-1-ylbenzoyl)-2,3,4,5-tetrahydrobenzoazepine-5-yl]-N-isopropylacetoamide, reference compound] |
